Reference: the supplement of paper PMC10307832

Legend:
Assay in all cases: relative viability (nuclei count vs DMSO), 5 days (fraction); higher = more cells survive
[1] = compound: CC1=C(C(=NN1)C)CC2=C(C3=C(S2)N(C(=O)N(C3=O)C)CC(C)C)C(=O)N4C[C@@H](CO4)O + NC(=O)Nc1cc(-c2cccc(F)c2)sc1C(=O)N[C@H]1CCCNC1 [AZD7762] (partner 0.2 µM)
How it was run: (§1)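 Relative viability was taken as the ratio of nuclei in treated wells to nuclei in vehicle wells. Lung cancer cell lines in 1536-well plates received compounds by pin tool one day after seeding, either one drug alone or a fixed anchor-drug dose plus five library-drug doses (not always all listed) in √10 steps. Nuclei were counted on 4× images after 5 days of treatment, and values are medians of duplicate plates.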

[2] = compound: CC1=C(C(=NN1)C)CC2=C(C3=C(S2)N(C(=O)N(C3=O)C)CC(C)C)C(=O)N4C[C@@H](CO4)O + Nc1nc2[nH]cc(CCc3ccc(C(=O)N[C@@H](CCC(=O)O)C(=O)O)cc3)c2c(=O)[nH]1 [Pemetrexed] (partner 0.2 µM)
How it was run: as §1

IDH-C35 + Phenformin = compound: Cc1ccccc1C(C(=O)NC1CCCCC1)N(C(=O)Cn1ccnc1C)c1cccc(F)c1 [IDH-C35] + N=C(N)NC(=N)NCCc1ccccc1 [Phenformin] (partner 250 µM)
How it was run: as §1

[3] = compound: CC1=C(C(=NN1)C)CC2=C(C3=C(S2)N(C(=O)N(C3=O)C)CC(C)C)C(=O)N4C[C@@H](CO4)O + Cc1cc(Nc2cc(N3CCN(C)CC3)nc(Sc3ccc(NC(=O)C4CC4)cc3)n2)n[nH]1 [Tozasertib] (partner 0.1 µM)
How it was run: as §1

Cell Line | relative viability ([1]; first compound 0.0025 µM) | relative viability ([1]; first compound 0.007906 µM) | relative viability ([1]; first compound 0.025 µM) | relative viability ([1]; first compound 0.07906 µM) | relative viability ([1]; first compound 0.25 µM) | relative viability ([2]; first compound 0.0025 µM) | relative viability ([2]; first compound 0.007906 µM) | relative viability ([2]; first compound 0.025 µM) | relative viability ([2]; first compound 0.07906 µM) | relative viability ([2]; first compound 0.25 µM) | relative viability (IDH-C35 + Phenformin; first compound 0.08 µM) | relative viability (IDH-C35 + Phenformin; first compound 0.253 µM) | relative viability (IDH-C35 + Phenformin; first compound 0.8 µM) | relative viability (IDH-C35 + Phenformin; first compound 2.53 µM) | relative viability (IDH-C35 + Phenformin; first compound 8 µM) | relative viability ([3]; first compound 0.0025 µM) | relative viability ([3]; first compound 0.007906 µM) | relative viability ([3]; first compound 0.07906 µM) | relative viability ([3]; first compound 0.25 µM) | relative viability ([3]; first compound 0.025 µM)
NCI-H2405 | 0.793 | 0.778 | 0.573 | 0.69 | 0.678 | 1.15 | 1.22 | 1.03 | 1 | 0.795 | 0.419 | 0.394 | 0.41 | 0.384 | 0.363 | 0.697 | 0.729 | 0.577 | 0.676 | –
NCI-H3122 | 1.03 | 1.09 | 1.02 | 0.973 | 1.02 | 0.196 | 0.202 | 0.185 | 0.187 | 0.216 | 0.391 | 0.372 | 0.4 | 0.376 | 0.359 | 0.37 | 0.242 | 0.414 | 0.485 | 0.376
PC-3 [JPC-3] | 0.872 | 0.76 | 0.69 | 0.976 | 0.806 | 1.11 | 1.03 | 1.01 | 1.27 | 0.834 | 0.471 | 0.447 | 0.521 | 0.509 | 0.453 | 0.932 | 0.74 | 0.932 | 1.01 | 0.867
PC-14 | 0.33 | 0.371 | 0.332 | 0.374 | 0.306 | 0.158 | 0.126 | 0.155 | 0.122 | 0.121 | 0.53 | 0.611 | 0.642 | 0.434 | 0.662 | 0.593 | 0.549 | 0.614 | 0.598 | 0.525
RERF-LC-KJ | 1.01 | 1.16 | 0.888 | 1.1 | 1.01 | 0.46 | 0.468 | 0.463 | 0.511 | 0.503 | 0.415 | 0.443 | 0.419 | 0.456 | 0.403 | 0.461 | 0.529 | 0.485 | 0.492 | 0.469
SW 900 | 0.604 | 0.706 | 0.628 | 0.58 | 0.449 | 0.489 | 0.456 | 0.489 | 0.529 | 0.434 | 0.669 | 0.591 | 0.56 | 0.615 | 0.438 | 0.57 | 0.558 | 0.524 | 0.591 | 0.536
